According to US20250152605A1, “METHOD AND DRUG FOR TREATING NEURONAL CEROID LIPOFUSCINOSIS” (priority 2021, published 2025):

What was measured:
[1] = tested on: CLN3^Δex7/8 neural stem cells; experiment: Lysotracker staining of CLN3^Δex7/8 neural stem cells; type: cell-based, human
Procedure: The cells were stained with Lysotracker, a fluorescent dye that is enriched in acidic lysosomes and emits red fluorescence. The fluorescence intensity of the stained cells was then analyzed using flow cytometry.

[2] = tested on: SCMAS protein; experiment: SCMAS protein storage in neurons (immunofluorescence staining and western blot); type: cell-based, human; conditions: CLN3^Δex7/8 neurons
Procedure: Sample preparation: for adherent cultured cells, exemplified by cells cultured in a six-well cell plate, the cell medium was aspirated and the cells were washed once with dPBS. About 100 μL of RIPA lysate (50 mM Tris-HCl, pH 7.5, 150 mM NaCl, 0.25% Na-deoxycholate, 0.1% NP-40, 0.1% Triton X-100) containing protease inhibitors and phosphatase inhibitors was added to each well. The cell lysate was scraped off completely with a cell scraper and collected into 1.5 mL EP tubes. Lysis was continued for 30 minutes on ice. For animal tissue, the weight of the animal tissue was weighed, and RIPA lysate containing protease inhibitors and phosphatase inhibitors was added with five times the volume of the animal tissue. The tissue was grinded on ice with a tissue grinder until there is no obvious tissue mass, collected into 1.5 mL EP tubes, and placed on ice for further lysis for 30 min. […]

[3] = tested on: Cln3 KO mice; experiment: Body weight, brain tissue mass and toxicity in Cln3 KO mice
Procedure: The control group was Cln3 KO mice whose drinking water contained an equal amount of solvent. Body weight changes were recorded during administration.
Starting from day 21 on which the mice were weaned, Compound G or the solvent was added to the drinking water of Cln3 KO mice, and the weight changes of the mice were recorded. […] When the mice reached six months of age, they were euthanized and the brain tissues were taken out and weighed.

[4] = tested on: Cln3 KO mice; experiment: Rotarod test (roller experiment); type: in vivo, mouse; conditions: 4th day of testing
Procedure: First, the roller experiment was conducted. Treatment of Compound G was continuously provided to the mice after weaned on day 21. When the wild-type mice, the Cln3 KO mice and the Compound G-treated Cln3 KO mice reached 4-5 months of age, roller training for 3 days was conducted, and test was conducted on the 4th day for the motor ability of the mice on the roller.

[5] = tested on: p62; experiment: p62 transcription (qRT-PCR) and p62 protein level in human neurons; type: cell-based
Procedure: The cells in the cell-culture dish were collected, extracted using AxyPrep Total RNA Mini Prep Kit or Qiagen AxyPrep Total RNA Mini Prep Kit, and the extracted RNA concentration is measured using Nanodrop; the extracted mRNA was reverse transcribed into cDNA by Transgen's EasyScript® One-Step gDNA Removal and cDNA Synthesis SuperMix and the primers used for reverse transcription were Oligo dT primers; the completion of reverse transcription followed by qRT-PCR reaction through PerfectStart™ Green qPCR SuperMix to detect the expression of the target gene; the qRT-PCR reaction was performed on the Bio-Rad CFX96 Real-Time PCR system; see Table 2 and Table 3 for the 20 μL qRT-PCR reaction system and reaction procedures; data analysis was performed in Prism 7 software using the 2^−ΔΔCt process with GAPDH as internal reference for relative quantification of the expression of the target gene.
FIG. 41: Compound G increased intracellular p62 protein levels. (a) 24 hours after treatment of human neurons with Compound G or after KEAP1 knockdown, transcriptional levels of the p62 gene were detected by qRT-PCR (n=3). (b) 24 hours after treatment of human neurons with Compound G or after KEAP1 knockdown, intracellular p62 protein levels were detected by Western blotting and band intensity statistics (n=3) were performed. […]

SMILES: C/C=C1\C(=O)C[C@H]2[C@@H]3CCC4=CC(=O)CC[C@]4(C)[C@H]3CC[C@]12C [Compound G, (Z)-guggulsterone]
- Lysotracker staining in neural stem cells [1]: significantly improve the Lysotracker staining
- abnormal storage of SCMAS protein [2]: significant reduction
- body weight of mice ([3]; 2 or 6 months old, drinking water from day 21): no significant effect
- mass of the mice brain tissue ([3]; 6 months of age): no significant effect
- falling time from the roller [4]: significantly extended
- p62 protein level ([5]; 24 hours, Western blotting): increase the p62 protein level
- transcription level of p62 ([5]; incubation for 24 hours, qRT-PCR): significantly increase
